Assay results taken from patent US20240182453A1, “NOVEL SUBSTITUTED PYRAZINE-CARBOXAMIDE DERIVATIVES” (Boehringer Ingelheim International GmbH, priority 2022, published 2024).

molecular target: human metabotropic Glutamate 4 receptor (mGluR4) (Homo sapiens (Human), UniProt Q14833); experiment: Assay A: in vitro testing of mGluR4 potency (glutamate-induced cAMP lowering, HTRF cAMP); type: cell-based; conditions: HEK293 cells overexpressing human mGluR4; 10 uM L-glutamic acid, 1 uM forskolin; compounds of the present invention
Sequence (Q14833 33-912): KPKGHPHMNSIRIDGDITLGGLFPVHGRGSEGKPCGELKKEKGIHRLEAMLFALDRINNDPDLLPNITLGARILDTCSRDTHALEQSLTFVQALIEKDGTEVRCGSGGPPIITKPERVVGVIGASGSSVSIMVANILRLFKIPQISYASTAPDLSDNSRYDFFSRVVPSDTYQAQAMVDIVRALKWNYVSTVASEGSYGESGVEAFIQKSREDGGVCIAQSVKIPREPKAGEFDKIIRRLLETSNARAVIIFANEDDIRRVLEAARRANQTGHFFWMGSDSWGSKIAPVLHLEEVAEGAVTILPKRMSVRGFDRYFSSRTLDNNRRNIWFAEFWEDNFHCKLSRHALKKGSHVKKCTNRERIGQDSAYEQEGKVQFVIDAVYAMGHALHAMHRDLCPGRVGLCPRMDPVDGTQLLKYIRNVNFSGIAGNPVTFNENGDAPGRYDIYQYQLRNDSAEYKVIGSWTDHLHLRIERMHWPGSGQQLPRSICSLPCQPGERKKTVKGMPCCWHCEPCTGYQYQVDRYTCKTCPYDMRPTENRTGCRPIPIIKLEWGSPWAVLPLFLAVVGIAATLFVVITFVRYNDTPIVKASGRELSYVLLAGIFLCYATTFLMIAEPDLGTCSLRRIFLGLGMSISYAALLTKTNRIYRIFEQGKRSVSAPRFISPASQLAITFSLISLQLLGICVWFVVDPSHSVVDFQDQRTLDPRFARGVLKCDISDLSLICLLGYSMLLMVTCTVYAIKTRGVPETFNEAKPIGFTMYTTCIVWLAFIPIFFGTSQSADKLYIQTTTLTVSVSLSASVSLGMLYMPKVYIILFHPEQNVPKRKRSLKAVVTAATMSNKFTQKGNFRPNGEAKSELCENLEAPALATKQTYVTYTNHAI
Method in brief: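 HEK293 cells overexpressing human mGluR4 treated 30 min at room temperature with compound plus 10 uM L-glutamate, 1 uM forskolin, 0.5 mM IBMX, 0.1% BSA, 1% DMSO. cAMP read by HTRF (665/615 nm ratio), normalized to glutamate (100%) and no-glutamate (0%) controls as percent of control.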

IC50 | SMILES
10 nM | COCCn1c([C@@H](NC(=O)c2cnc(C)cn2)[C@H]2CCCO2)nc2cc(OC(F)(F)F)ccc21 [Example 89, N-[(R)-[1-(2-methoxyethyl)-5-(trifluoromethoxy)-1H-1,3-benzodiazol-2-yl][(2R)-oxolan-2-yl]methyl]-5-methylpyrazine-2-carboxamide]
4 nM | COCCn1c(C(NC(=O)c2cnc(C)cn2)C2CCCO2)nc2cc(OC(F)(F)F)ccc21 (centres unmarked) [Example 89-2]
6 nM | COCCn1c([C@@H](NC(=O)c2cnc(C(F)F)cn2)[C@@H]2CCOC2)nc2cc(C(F)(F)F)ccc21 [Example 90, 5-(difluoromethyl)-N-[(S)-[1-(2-methoxyethyl)-5-(trifluoromethyl)-1H-1,3-benzodiazol-2-yl][(3S)-oxolan-3-yl]methyl]pyrazine-2-carboxamide]
13 nM | COCCn1c(C(NC(=O)c2cnc(C(F)F)cn2)C2CCOC2)nc2cc(C(F)(F)F)ccc21 (centres unmarked) [Example 90-3]
11 nM | COCCn1c([C@@H](NC(=O)c2cnc(C)cn2)[C@@H]2CCOC2)nc2cc(Cl)ccc21 [Example 91, N-[(S)-[5-chloro-1-(2-methoxyethyl)-1H-1,3-benzodiazol-2-yl][(3S)-oxolan-3-yl]methyl]-5-methylpyrazine-2-carboxamide]
18 nM | Cc1cnc(C(=O)N[C@@H](CC2CC2)c2nc3cc(Cl)ccc3n2C2CC2)cn1 [Example 92, N-[(1S)-1-(5-chloro-1-cyclopropyl-1H-1,3-benzodiazol-2-yl)-2-cyclopropylethyl]-5-methylpyrazine-2-carboxamide]
9 nM | Cc1cnc(C(=O)N[C@H](c2nc3cc(C(F)(F)F)ccc3n2C)C2(O)CCC2)cn1 [Example 93, N-[(R)-(1-hydroxycyclobutyl)[1-methyl-5-(trifluoromethyl)-1H-1,3-benzodiazol-2-yl]methyl]-5-methylpyrazine-2-carboxamide]
16 nM | Cn1c([C@H](CC2CC2)NC(=O)c2cnc(C(F)F)cn2)nc2cc(F)c(F)cc21 [Example 94, N-[(1S)-2-cyclopropyl-1-(5,6-difluoro-1-methyl-1H-1,3-benzodiazol-2-yl)ethyl]-5-(difluoromethyl)pyrazine-2-carboxamide]
13 nM | Cc1cnc(C(=O)N[C@@H](CC2CC2)c2nc3cc(F)ccc3n2CCOC(F)F)cn1 [Example 95, N-[(1S)-2-cyclopropyl-1-{1-[2-(difluoromethoxy)ethyl]-5-fluoro-1H-1,3-benzodiazol-2-yl}ethyl]-5-methylpyrazine-2-carboxamide]
15 nM | Cc1cnc(C(=O)N[C@H](c2nc3cc(C)c(F)cc3n2C)C2CC2)cn1 [Example 96, N-[(S)-cyclopropyl (6-fluoro-1,5-dimethyl-1H-1,3-benzodiazol-2-yl)methyl]-5-methylpyrazine-2-carboxamide]
20 nM | CCn1c([C@@H](NC(=O)c2cnc(C)cn2)[C@@H]2CCOC2)nc2cc(OC(F)(F)F)ccc21 [Example 97, N-[(S)-[1-ethyl-5-(trifluoromethyoxy)-1H-1,3-benzodiazol-2-yl][(3S)-oxolan-3-yl]methyl]-5-methylpyrazine-2-carboxamide]
10 nM | CCn1c([C@@H](NC(=O)c2cnc(C)cn2)C(C)(C)O)nc2cc(OC(F)(F)F)ccc21 [Example 98, N-[(1R)-1-[1-ethyl-5-(trifluoromethoxy)-1H-1,3-benzodiazol-2-yl]-2-hydroxy-2-methylpropyl]-5-methylpyrazine-2-carboxamide]
9 nM | O=C(N[C@@H](CC1CC1)c1nc2cc(F)ccc2n1CCOC(F)F)c1cnc(C(F)F)cn1 [Example 99, N-[(1S)-2-cyclopropyl-1-{1-[2-(difluoromethoxy)ethyl]-5-fluoro-1H-1,3-benzodiazol-2-yl}ethyl]-5-(difluoromethyl)pyrazine-2-carboxamide]
19 nM | Cc1cnc(C(=O)N[C@H](c2nc3cc(Cl)c(F)cc3n2C)C2CC2)cn1 [Example 100, N-[(S)-(5-chloro-6-fluoro-1-methyl-1H-1,3-benzodiazol-2-yl)(cyclopropyl)methyl]-5-methylpyrazine-2-carboxamide]
9 nM | Cc1cnc(C(=O)N[C@H](c2nc3cc(Cl)ccc3n2C2CC2)C2CC2)cn1 [Example 101, N-[(S)-(5-chloro-1-cyclopropyl-1H-1,3-benzodiazol-2-yl)(cyclopropyl)methyl]-5-methylpyrazine-2-carboxamide]
13 nM | COCCn1c([C@@H](NC(=O)c2cnc(C(F)F)cn2)[C@H]2CCOC2)nc2cc(C(F)(F)F)ccc21 [Example 102, 5-(difluoromethyl)-N-[(S)-[1-(2-methoxyethyl)-5-(trifluoromethyl)-1H-1,3-benzodiazol-2-yl][(3R)-oxolan-3-yl]methyl]pyrazine-2-carboxamide]

IC50 | SMILES
8 nM | COCCn1c([C@@H](NC(=O)c2cnc(C)cn2)[C@H]2CCCOC2)nc2cc(C(F)(F)F)ccc21 [Example 103, N-[(S)-[1-(2-methoxyethyl)-5-(trifluoromethyl)-1H-1,3-benzodiazol-2-yl][(3R)-oxan-3-yl]methyl]-5-methylpyrazine-2-carboxamide]
17 nM | CCn1c([C@@H](NC(=O)c2cnc(C)cn2)C(C)(C)O)nc2cc(C(F)(F)F)ccc21 [Example 104, N-[(1R)-1-[1-ethyl-5-(trifluoromethyl)-1H-1,3-benzodiazol-2-yl]-2-hydroxy-2-methylpropyl]-5-methylpyrazine-2-carboxamide]
8 nM | Cc1cnc(C(=O)N[C@@H](CC2CC2)c2nc3cc(OC(F)(F)F)ccc3n2C)cn1 [Example 105, N-[(1S)-2-cyclopropyl-1-[1-methyl-5-(trifluoromethoxy)-1H-1,3-benzodiazol-2-yl]ethyl]-5-methylpyrazine-2-carboxamide]
11 nM | Cn1c([C@H](CC2CC2)NC(=O)c2cnc(C(F)F)cn2)nc2cc(Cl)ccc21 [Example 106, N-[(1S)-1-(5-chloro-1-methyl-1H-1,3-benzodiazol-2-yl)-2-cyclopropylethyl]-5-(difluoromethyl)pyrazine-2-carboxamide]
13 nM | Cc1cnc(C(=O)N[C@H](c2nc3c(Cl)c(F)ccc3n2C)C2CC2)cn1 [Example 107, N-[(S)-(4-chloro-5-fluoro-1-methyl-1H-1,3-benzodiazol-2-yl)(cyclopropyl)methyl]-5-methylpyrazine-2-carboxamide]
6 nM | O=C(N[C@@H](CC1CC1)c1nc2cc(Cl)ccc2n1CCOC(F)F)c1cnc(C(F)F)cn1 [Example 108, N-[(1S)-1-{5-chloro-1-[2-(difluoromethoxy)ethyl]-1H-1,3-benzodiazol-2-yl}-2-cyclopropylethyl]-5-(difluoromethyl)pyrazine-2-carboxamide]
6 nM | CCc1c(Br)ccc2c1nc([C@@H](NC(=O)c1cnc(C)cn1)C(C)(C)O)n2C [Example 109, N-[(1R)-1-(5-bromo-4-ethyl-1-methyl-1H-1,3-benzodiazol-2-yl)-2-hydroxy-2-methylpropyl]-5-methylpyrazine-2-carboxamide]
14 nM | Cc1cnc(C(=O)N[C@H](c2nc3cc(F)c(Br)cc3n2C)C2CC2)cn1 [Example 110, N-[(S)-(6-bromo-5-fluoro-1-methyl-1H-1,3-benzodiazol-2-yl)(cyclopropyl)methyl]-5-methylpyrazine-2-carboxamide]
10 nM | O=C(N[C@@H](CC1CC1)c1nc2cc(F)c(F)cc2n1CCOC(F)F)c1cnc(C(F)F)cn1 [Example 111, N-[(1S)-2-cyclopropyl-1-{1-[2(difluoromethoxy)ethyl]-5,6-difluoro-1H-1,3-benzodiazol-2-yl}ethyl]-5-(difluoromethyl)pyrazine-2-carboxamide]
15 nM | COc1c(Cl)ccc2c1nc([C@@H](NC(=O)c1cnc(C)cn1)C1CC1)n2C [Example 112, N-[(S)-(5-chloro-4-methoxy-1-methyl-1H-1,3-benzodiazol-2-yl)(cyclopropyl)methyl]-5-methylpyrazine-2-carboxamide]
17 nM | Cn1c([C@@H](NC(=O)c2cnc(C(F)F)cn2)[C@H]2CCCO2)nc2cc(OC(F)(F)F)ccc21 [Example 113, 5-(difluoromethyl)-N-[(R)-[1-methyl-5-(trifluoromethoxy)-1H-1,3-benzodiazol-2-yl][(2R)-oxolan-2-yl]methyl]pyrazine-2-carboxamide]
45 nM | Cn1c(C(NC(=O)c2cnc(C(F)F)cn2)C2CCCO2)nc2cc(OC(F)(F)F)ccc21 (centres unmarked) [Example 113-1, 5-(difluoromethyl)-N-{[1-methyl-5-(trifluoromethoxy)-1H-1,3-benzodiazol-2-yl](oxolan-2-yl)methyl}pyrazine-2-carboxamide]
15 nM | O=C(N[C@@H](CC1CC1)c1nc2cc(F)ccc2n1C1CC1)c1cnc(C(F)F)cn1 [Example 114, N-[(1S)-2-cyclopropyl-1-(1-cyclopropyl-5-fluoro-1H-1,3-benzodiazol-2-yl)ethyl]-5-(difluoromethyl)pyrazine-2-carboxamide]
9 nM | Cc1cnc(C(=O)N[C@H](c2nc3cc(OC(F)(F)F)ccc3n2C2CC2)C2CC2)cn1 [Example 115, N-[(S)-cyclopropyl[1-cyclopropyl-5-(trifluoromethoxy)-1H-1,3-benzodiazol-2-yl]methyl]-5-methylpyrazine-2-carboxamide]
13 nM | Cc1cnc(C(=O)N[C@H](c2nc3cc(C(F)(F)F)ccc3n2C2CC2)C2CC2)cn1 [Example 116, N-[(S)-cyclopropyl[1-cyclopropyl-5-(trifluoromethyl)-1H-1,3-benzodiazol-2-yl]methyl]-5-methylpyrazine-2-carboxamide]
8 nM | O=C(N[C@@H](CC1CC1)c1nc2cc(Cl)ccc2n1C1CC1)c1cnc(C(F)F)cn1 [Example 117, N-[(1S)-1-(5-chloro-1-cyclopropyl-1H-1,3-benzodiazol-2-yl)-2-cyclopropylethyl]-5-(difluoromethyl)pyrazine-2-carboaxamide]
